Results taken from ChEMBL document CHEMBL1140095, “Design, synthesis, and antibacterial activities of neomycin-lipid conjugates: polycationic lipids with potent gram-positive activity” (2008).
≈ marks a conversion by molar mass, not a printed value.

What was measured:
[1] = system: Staphylococcus epidermidis; test: Antibacterial activity against methicillin-resistant Staphylococcus epidermidis ATCC 14990 after 24 hrs by macrobroth dilution method; assay type: functional; conditions: ATCC 14990, 24 h
Staphylococcus aureus [2] = test: Antibacterial activity against methicillin-resistant Staphylococcus aureus ATCC 33592 after 24 hrs by macrobroth dilution method; assay type: functional; conditions: ATCC 33592, 24 h
Staphylococcus aureus [3] = test: Antibacterial activity against Staphylococcus aureus ATCC 29213 after 24 hrs by macrobroth dilution method; assay type: functional; conditions: ATCC 29213, 24 h
[4] = system: Staphylococcus epidermidis; test: Antibacterial activity against Staphylococcus epidermidis ATCC 1490 after 24 hrs by macrobroth dilution method; assay type: functional; conditions: ATCC 1490, 24 h
Streptococcus pneumoniae [5] = test: Antibacterial activity against […] Streptococcus pneumoniae ATCC 49619 after 24 hrs by macrobroth dilution method; assay type: functional; conditions: ATCC 49619, 24 h
Escherichia coli [6] = test: Antibacterial activity against gentamicin-resistant Escherichia coli ATCC 6174 after 24 hrs by macrobroth dilution method; assay type: functional; conditions: ATCC 6174, 24 h
Candida albicans = test: Antibacterial activity against Candida albicans; assay type: functional
Pseudomonas aeruginosa = test: Antibacterial activity against Pseudomonas aeruginosa ATCC 27853 after 24 hrs by macrobroth dilution method; assay type: functional; conditions: ATCC 27853, 24 h
Escherichia coli [7] = test: Antibacterial activity against Escherichia coli ATCC 25922 after 24 hrs by macrobroth dilution method; assay type: functional; conditions: ATCC 25922, 24 h
Streptococcus pneumoniae [8] = test: Antibacterial activity against Streptococcus pneumoniae ATCC 49619 after 24 hrs by macrobroth dilution method; conditions: ATCC 49619, 24 h
Staphylococcus aureus [9] = test: Antibacterial activity against methicillin-susceptible Staphylococcus aureus after 24 hrs by macrobroth dilution method; assay type: functional
Escherichia coli [10] = test: Antibacterial activity against Escherichia coli; assay type: functional
Staphylococcus aureus [11] = test: Antibacterial activity against methicillin-resistant Staphylococcus aureus; assay type: functional
Staphylococcus aureus [12] = test: Antibacterial activity against Staphylococcus aureus; assay type: functional

Structure (SMILES) | MIC [1] | MIC (Staphylococcus aureus [2]) | MIC (Staphylococcus aureus [3]) | MIC [4] | MIC (Streptococcus pneumoniae [5]) | MIC (Escherichia coli [6]) | MIC (Candida albicans) | MIC (Pseudomonas aeruginosa) | MIC (Escherichia coli [7]) | MIC (Streptococcus pneumoniae [8]) | MIC (Staphylococcus aureus [9]) | MIC (Escherichia coli [10]) | MIC (Staphylococcus aureus [11]) | MIC (Staphylococcus aureus [12])
C[C@@H](CCC(=O)NC[C@H]1O[C@@H](O[C@@H]2[C@@H](O)[C@H](N)C[C@H](N)[C@H]2O[C@H]2O[C@H](CN)[C@@H](O)[C@H](O)[C@H]2N)[C@H](O)[C@@H]1O[C@H]1O[C@@H](CN)[C@@H](O)[C@H](O)[C@H]1N)[C@@H]1CC[C@H]2[C@@H]3[C@@H](O)C[C@H]4C[C@@H](O)CC[C@@]4(C)[C@H]3C[C@@H](O)[C@]21C (stereo in doubt) | 16 µg/mL (≈ 15.9 µM) | 128 µg/mL (≈ 127 µM) | 16 µg/mL (≈ 15.9 µM) | 8 µg/mL (≈ 7.97 µM) | > 256 µg/mL | 64 µg/mL (≈ 63.7 µM) | ≥ 512 µg/mL | > 256 µg/mL | 32 µg/mL (≈ 31.9 µM) | – | – | – | – | –
NC[C@@H]1O[C@H](O[C@H]2[C@@H](O)[C@H](O[C@@H]3[C@@H](O)[C@H](N)C[C@H](N)[C@H]3O[C@H]3O[C@H](CN)[C@@H](O)[C@H](O)[C@H]3N)O[C@@H]2CNC(=O)CCCc2ccc3ccc4cccc5ccc2c3c45)[C@H](N)[C@@H](O)[C@@H]1O | 64 µg/mL (≈ 72.4 µM) | 256 µg/mL (≈ 290 µM) | 16 µg/mL (≈ 18.1 µM) | 2 µg/mL (≈ 2.26 µM) | > 512 µg/mL | 64 µg/mL (≈ 72.4 µM) | ≥ 512 µg/mL | 256 µg/mL (≈ 290 µM) | 32 µg/mL (≈ 36.2 µM) | – | – | – | – | –
CCCCCCCCCCCC(=O)NC[C@H]1O[C@@H](O[C@@H]2[C@@H](O)[C@H](N)C[C@H](N)[C@H]2O[C@H]2O[C@H](CN)[C@@H](O)[C@H](O)[C@H]2N)[C@H](O)[C@@H]1O[C@H]1O[C@@H](CN)[C@@H](O)[C@H](O)[C@H]1N | 8 µg/mL (≈ 10.1 µM) | > 512 µg/mL | 32 µg/mL (≈ 40.2 µM) | 4 µg/mL (≈ 5.03 µM) | – | 64 µg/mL (≈ 80.4 µM) | ≥ 512 µg/mL | 256 µg/mL (≈ 322 µM) | 64 µg/mL (≈ 80.4 µM) | 128 µg/mL (≈ 161 µM) | – | – | – | –
CCCCCCCCCCCC(=O)O [DODECANOATE] | – | 400 µg/mL (≈ 2000 µM) | – | – | – | – | – | – | – | – | 400 µg/mL (≈ 2000 µM) | – | – | –
CCCCCCCCCCCCCCCCCCCC(=O)NC[C@H]1O[C@@H](O[C@@H]2[C@@H](O)[C@H](N)C[C@H](N)[C@H]2O[C@H]2O[C@H](CN)[C@@H](O)[C@H](O)[C@H]2N)[C@H](O)[C@@H]1O[C@H]1O[C@@H](CN)[C@@H](O)[C@H](O)[C@H]1N | 4 µg/mL (≈ 4.4 µM) | 8 µg/mL (≈ 8.81 µM) | 8 µg/mL (≈ 8.81 µM) | 4 µg/mL (≈ 4.4 µM) | 64 µg/mL (≈ 70.5 µM) | 128 µg/mL (≈ 141 µM) | ≥ 512 µg/mL | 64 µg/mL (≈ 70.5 µM) | 128 µg/mL (≈ 141 µM) | – | – | – | – | –
CCCCCC(=O)NC[C@H]1O[C@@H](O[C@@H]2[C@@H](O)[C@H](N)C[C@H](N)[C@H]2O[C@H]2O[C@H](CN)[C@@H](O)[C@H](O)[C@H]2N)[C@H](O)[C@@H]1O[C@H]1O[C@@H](CN)[C@@H](O)[C@H](O)[C@H]1N | 32 µg/mL (≈ 45 µM) | > 512 µg/mL | 16 µg/mL (≈ 22.5 µM) | 2 µg/mL (≈ 2.81 µM) | – | 16 µg/mL (≈ 22.5 µM) | ≥ 512 µg/mL | > 512 µg/mL | 16 µg/mL (≈ 22.5 µM) | 64 µg/mL (≈ 89.9 µM) | – | – | – | –
CCCCCCCCCCCCC/C=C/[C@@H](O)[C@@H](N)CO [SPHINGOSINE] | – | – | – | – | – | – | 6 µg/mL (≈ 20 µM) | – | – | – | – | 42 µg/mL (≈ 140 µM) | 4 µg/mL (≈ 13.4 µM) | 2 µg/mL (≈ 6.68 µM)
CCCCCCCCCCCCCCCC(=O)NC[C@H]1O[C@@H](O[C@@H]2[C@@H](O)[C@H](N)C[C@H](N)[C@H]2O[C@H]2O[C@H](CN)[C@@H](O)[C@H](O)[C@H]2N)[C@H](O)[C@@H]1O[C@H]1O[C@@H](CN)[C@@H](O)[C@H](O)[C@H]1N | 2 µg/mL (≈ 2.35 µM) | 8 µg/mL (≈ 9.39 µM) | 4 µg/mL (≈ 4.69 µM) | 2 µg/mL (≈ 2.35 µM) | – | 64 µg/mL (≈ 75.1 µM) | ≥ 512 µg/mL | 128 µg/mL (≈ 150 µM) | 32 µg/mL (≈ 37.6 µM) | 64 µg/mL (≈ 75.1 µM) | – | – | – | –
NC[C@@H]1O[C@H](O[C@H]2[C@@H](O)[C@H](O[C@@H]3[C@@H](O)[C@H](N)C[C@H](N)[C@H]3O[C@H]3O[C@H](CN)[C@@H](O)[C@H](O)[C@H]3N)O[C@@H]2CO)[C@H](N)[C@@H](O)[C@@H]1O [FRAMYCETIN] | 0.5 µg/mL (≈ 0.813 µM) | 256 µg/mL (≈ 416 µM) | 2 µg/mL (≈ 3.25 µM) | 1 µg/mL (≈ 1.63 µM) | 64 µg/mL (≈ 104 µM) | 4 µg/mL (≈ 6.51 µM) | ≥ 512 µg/mL | 512 µg/mL (≈ 833 µM) | 8 µg/mL (≈ 13 µM) | – | – | – | – | –
